Measurements reported in US20250296910A1, “BENZAMIDE ENAMINONE DERIVATIVES AND METHODS OF USE THEREOF” (University of Maryland, Eastern Shore, priority 2022, published 2025).

What was measured:
[1] = test system: maximal electroshock (MES) model; test: maximal electroshock (MES) test (ETSP anticonvulsant screening); assay type: in vivo, Carworth Farms no. 1 (CF1) mice; settings: ip, mice; for animals protected in MES model: 300 mg/kg
Method: (§1) Initial evaluation for anticonvulsant activity was done by the Epilepsy Therapy Screening Program Branch, National Institute of Neurological Disorders and Stroke. Phase I evaluation included three tests: maximal electroshock (MES), 6 Hz, and rotarod test for neurological toxicity (Tox). The studies were done in normal adult male Carworth Farms no. 1 (CF1) mice using four or more mice pre-test. Intraperitoneal (ip) administration of the test compounds was carried out as a suspension in 0.5% methylcellulose. The compounds were tested at doses ranging from 30 mg/kg to 300 mg/kg. The animals were pretreated with the test compound at time intervals of 0.5 h and 2 h. The rotarod neurologic toxicity test was completed at each dose and time point. The MES test is a high frequency (60 Hz), short duration ([…]) stimulus delivered through corneal electrodes in normal rodents while the 6 Hz 44 mA psychomotor test is a long duration (3 s) and low frequency (6 Hz). Compounds active in the MES Identification Phase tests are screened for their ability to block seizures induced in the 6 Hz psychomotor focal seizures animal model of epilepsy. The compounds effective in the 6-Hz model during the Identification phase become candidates for advanced screening in the Differentiation Phase.

6 Hz 44 mA animal model = test: 6 Hz 44 mA psychomotor seizure test (ETSP anticonvulsant screening); assay type: in vivo, Carworth Farms no. 1 (CF1) mice; settings: 300 mg/kg, ip, mice
Method: as §1

O=C1C=C(NC(=O)c2ccc(C(F)(F)F)cc2)CC(C(F)(F)F)C1 (stereo not shown) [Compound 7, N-(3-oxo-5-(trifluoromethyl)cyclohex-1-en-1-yl)-4 (trifluoro-methyl)-benzamide]
25%: protection in MES model ([1]; 100 mg/kg, after 2 h) | animals protected in MES model ([1]; 0.5 h) | animals protected in MES model ([1]; 2 h) | protection in 6 Hz 44 mA model (6 Hz 44 mA animal model)
